Like-named read-outs stand apart in the source and are kept apart here.
What was measured:
[1] = test system: pNL-AD87 HIV-1 virus; test: microbe, parasite or virus in culture; conditions: Human immunodeficiency virus 1
Procedure: (§3) Two compounds were evaluated for their activity as inhibitor of HIV replication on three different lab strains using the deCIPhR cellular format.
(§4) Compound stocks were prepared as 1.5 mM solution in 100% DMSO and vials were agitated for two hours at 50° C. Stock solutions were kept at −20° C., light protected as aliquots. Working dilutions (1/3 log) were prepared extemporaneously by serial dilutions in H2O/DMSO (95/5). Ten μL of working dilutions were then pipetted and directly tested for anti-HIV activity in the 200 μL final volume of the deCIPhR cellular assay format, yielding final concentrations of 7'500, 3'481, 1'616, 750, 348, 162, 75, 35, 16, 8 and 3 nM.
(§5) The DNA sequence coding for Vpu, Tat, Rev, Env, and Nef from the CCR5-tropic clone AD87 (HIV strain AD8, Genbank accession number #AF004394) was introduced by PCR-cloning into the reference proviral strain pNL4-3 (Genbank accession number #AF324493), where it replaced the corresponding region. Presence of insert was ascertained by restriction digest analysis and double sequencing on ABI 310 prism sequencer. After transfection, pNL-AD87 produces a full-length infectious virus often used as reference for a B-Subtype, CCR5-tropic strain (Theodore et al., 1996).
(§6) Principle of Dual-Enhancement of Cell-Infection to Phenotype Resistance (deCIPhR™): deCIPhR test is a proprietary assay system developed by InPheno AG (FIG. 7):
(§7) Fully infectious HIV-1 is produced from a proviral reference DNA reflecting a reference HIV-1 virus. Recombinants carrying an exchanged specific-sequence (e.g. mutants resistant to existing HIV-1 inhibitors or sequences issued from clinical situations) can easily be engineered by PCR-based amplification/ligation (see paragraph 3). The unique test format allows 3 to 5 rounds of viral replication and permits a dynamic parallel read-out of viral fitness and resistance to the respective drugs under investigation. Colorimetric readout (405 nm) is translated in percent viral inhibition through normalization with positive and negative control wells included in each 96 well-plate. […]

[2] = test system: "D-I-A" mutant (pNL-Bal, gp41 G36D, V38A); conditions: for IC50: "D-I-A" mutant, R5; for Rf (resistance factor: IC50 on mutant virus / IC50 on reference strain): "D-I-A" vs pNL-Bal; for Resistance factor (IC50 mut/IC50 wt) IC50 fold increase: Table II, "D-I-A" vs wild-type pNL-Bal
[3] = test system: pNL4-3 HIV-1 virus; test: microbe, parasite or virus in culture; conditions: Human immunodeficiency virus 1
Procedure: as §4
(§8) Fully infectious HIV-1 is produced from a proviral reference DNA reflecting a reference HIV-1 virus. […] The unique test format allows 3 to 5 rounds of viral replication and permits a dynamic parallel read-out of viral fitness and resistance to the respective drugs under investigation. Colorimetric readout (405 nm) is translated in percent viral inhibition through normalization with positive and negative control wells included in each 96 well-plate.
(§9) Each mutated proviral DNA is transfected into a human epitheloid cell line using lipofectant agent (lipofectamine 2000, Invitrogen) following the manufacturer's instructions. Cell to cell spread and replication of recombinant viruses is allowed for but also restricted to a period of four days in the absence or presence of specific drugs by co-culture with a second cell line expressing both chemokine receptors CXCR4 and CCR5. Finally, culture supernatants are transferred to a third reporter cell line also expressing both kinds of co-receptors. The infection is incubated for another 48 hours period, after which cells are fixed (formaldehyde/glutaraldehyde) prior to incubation with a chromogenic substrate for beta-galactosidase, typically ortho-nitrophenyl-galactopyranoside.
(§10) A range of twelve concentrations of each compound was tested in triplicates in the deCIPhR format on each mutated provirus.

[4] = test system: "G-I-A" mutant (pNL-Bal, gp41 V38A); conditions: for IC50: "G-I-A" mutant, R5; for Rf (resistance factor: IC50 on mutant virus / IC50 on reference strain): "G-I-A" vs pNL-Bal; for Resistance factor (IC50 mut/IC50 wt) IC50 fold increase: Table II, "G-I-A" vs wild-type pNL-Bal
[5] = test system: pNL-Bal HIV-1 virus; conditions: for Rf (resistance factor): pNL-Bal reference strain, ratio to itself
Procedure: as §3, §4
(§11) The DNA sequence coding for Vpu, Tat, Rev, Env, and Nef from the CCR5-tropic clone BAL2 (HIVBAL2A, Genbank accession number #M68894) was introduced by PCR-cloning into the reference proviral strain pNL4-3 (Genbank accession number #AF324493), where it replaced the corresponding region. Presence of insert was ascertained by restriction digest analysis and double sequencing on ABI 310 prism sequencer. After transfection, pNL-BaL produces a full-length infectious virus often used as reference for a B-Subtype, CCR5-tropic strain (Donaldson et al., 1994).
as §6
(§12) Fully infectious HIV-1 is produced from a proviral reference DNA reflecting a reference HIV-1 virus. Recombinants carrying an exchanged specific-sequence (e.g. mutants resistant to existing HIV-1 inhibitors or sequences issued from clinical situations) can easily be engineered by PCR-based amplification/ligation (see paragraph 3). The unique test format allows 3 to 5 rounds of viral replication and permits a dynamic parallel read-out of viral fitness and resistance to the respective drugs under investigation. Colorimetric readout (405 nm) is translated in percent viral inhibition through normalization with positive and negative control wells included in each 96 well-plate.
as §9, §10
(§13) The two compounds under investigation were tested along with reference compounds T20 and EFV on three wild-type viruses (pNL4-3, green curves; pNL-Bal, blue curves and pNL-AD87, orange curves) using the deCIPhR cellular system (see paragraph 4.1).

[6] = test system: pNL4-3 HIV-1 virus; test: microbe, parasite or virus in culture; format: cell-based; conditions: virus to cell infection, pNL4-3, X4 tropism
Procedure: Fully infectious HIV-1 is produced from proviral reference DNA reflecting a reference wild-type HIV-1 virus (pNL4-3, Genbank #AF003888).
(§1) Format for virus to cell infection: Briefly, the assay was performed in 6 well tissue culture plates and included 50'000 HIV-producing cells (HeLa) in a final volume of 2 mL DMEM medium (Gibco, Parsley, UK). After 2 days of incubation, […] of viral supernatant was added to 5'000 pre-incubated HIV-reporter cells (HeLaCCR5) in a final volume of […] of RPMI medium (Gibco, Parsley, UK) including […] of substances to be tested.
(§2) In this experiment only pNL4-3 reference HIV strain was used.
Graphs in FIG. 10 show the inhibition curves as percent of virus inhibition as a function of increasing concentrations of each compound. The table in FIG. 10 reports the calculated parameters of HIV inhibition (IC50, IC90 and Hill's coefficient).

[7] = test system: pNL-Bal HIV-1 virus; test: microbe, parasite or virus in culture; conditions: Human immunodeficiency virus 1, BAL
Procedure: as §3, §4, §11, §6, §12, §9, §10, §13

[8] = test system: binding of gp120 to α4β7; test: gp120 binding to α4β7 in cell extracts (previous studies); set-up: species or system human; conditions: read-out: activity of inhibition of the binding of gp120 to α4β7
Description: FIG. 37: Activity of a panel of inhibitors in blocking the binding of gp120 to a4b7. (a) The left chart depicts data collected in example 3 using ELISA assay. (b) The right chart depicts data collected by screening cell extracts. Bold letters used for a compound denote active compounds. The remaining compounds are weak or non-inhibitors All assays were repeated six times (three times for each anti-gp120 mAb used in the case of the ELISA data) and an average was presented. All values were obtained within 5% deviation.
This method was advanced into an ELISA format and applied to screen the number of compounds provided within the research period.
Outcome: Repandusinic acid A inhibited the binding of gp120 to α4β7 with an activity of 1.2±0.1 μM using the described an ELISA assay.
The five-step assay developed was applied to screen the panel of compounds provided. […] The experiments were run in triplicate using two antibodies against gp120. The data was compiled and plotted (FIG. 37a) and compared against the results with less accuracy obtained in our prior studies (FIG. 37b). Only modest changes were observed between the in vitro studies conducted herein (FIG. 37a) and those conducted on cell lysates (FIG. 37b). Results obtained are described in detail in the figure legend to FIG. 37 herein above.

[9] = test system: HIV; test: profiling of anti-HIV activity, summary over lab strains; format: cell-based, HIV-1; conditions: summary of Example 2 results
[10] = test system: deCIPhR cellular system; conditions: at tested concentrations
Description: as §9, §13

[11] = test system: HIV-reporter cells (HeLaCCR5); test: cytotoxicity microscopically observed in virus-to-cell infection format; format: cell-based; conditions: highest concentration
Procedure: as §1, §2

[12] = test system: pNL4-3 HIV-1 virus; conditions: cell to cell infection, pNL4-3, X4 tropism
Procedure: as §4, §8, §9, §10

[13] = test system: pNL-AD87 HIV-1 virus; conditions: cell to cell infection, pNL-AD87, R5 tropism
Procedure: as §3, §4, §5, §6, §7

Compound	IC50 [1] [µM]	IC50 [2] [µM]	Rf (resistance factor: IC50 on mutant virus / IC50 on reference strain) [2]	Resistance factor (IC50 mut/IC50 wt) IC50 fold increase [2]	IC50 [3] [µM]	IC50 [4] [µM]	Rf (resistance factor: IC50 on mutant virus / IC50 on reference strain) [4]	Resistance factor (IC50 mut/IC50 wt) IC50 fold increase [4]	Rf (resistance factor) [5]	also measured
O=C1Nc2ccc(Cl)cc2[C@@](C#CC2CC2)(C(F)(F)F)O1 [EFV, Efavirenz]	0.001	0.003	0.6	0.5	0.009	0.0017	0.3	0.3	1	IC50 ([6]; Human immunodeficiency virus 1, read-out: IC50): 0.002 µM; IC50 ([7]; read-out: IC50 (concentration inhibiting 50% of viral replication)): 0.005 µM
O=C(O)C=C(C(=O)OC1C2COC(=O)c3cc(O)c(O)c(O)c3-c3c(cc(O)c(O)c3O)C(=O)OC1C(O)C(OC(=O)c1cc(O)c(O)c(O)c1)O2)C1c2c(cc(O)c(O)c2O)C(=O)OC1C(=O)O (stereo not shown) [Repandusinic acid A]										IC50 [8]: 9.08 µM
O=C(CNC1CCCCC1)Nc1cccc(C(=O)Nc2cccc(C(F)(F)F)c2)c1 [T0520-5895]	0.25	> 30	>40	>40	> 30	7.6	0.5	0.5	1	anti-HIV activity [9]: significant anti-HIV activity; signs of cytotoxicity [10]: without signs of cytotoxicity; signs of cytotoxicity [11]: signs of cytotoxicity; IC50 [6]: inactive; IC50 ([7]; read-out: IC50, extrapolated value): 15.1 µM
enfuvirtide		2.27	227	227		0.127	12.7	13	1	IC50 [12]: 0.076 µM; IC50 [13]: 0.063 µM; IC50 ([5]; read-out: IC50 (concentration inhibiting 50% of viral replication), cell to cell infection, pNL-Bal, R5 tropism): 0.01 µM; IC50 ([6]; read-out: IC50): 0.048 µM

— patent publication US9422527B2, “Drug target site within gp120 of HIV” (priority 2011, dated 2016)
